Assay results taken from paper PMC2926596 (Nucleic Acids Research, 2010).

Biological target: T1, ϕ6 P2 (RNA-directed RNA polymerase, RdRP) (Pseudomonas phage phi6, UniProt P11124)
T1 sequence (P11124 1-665): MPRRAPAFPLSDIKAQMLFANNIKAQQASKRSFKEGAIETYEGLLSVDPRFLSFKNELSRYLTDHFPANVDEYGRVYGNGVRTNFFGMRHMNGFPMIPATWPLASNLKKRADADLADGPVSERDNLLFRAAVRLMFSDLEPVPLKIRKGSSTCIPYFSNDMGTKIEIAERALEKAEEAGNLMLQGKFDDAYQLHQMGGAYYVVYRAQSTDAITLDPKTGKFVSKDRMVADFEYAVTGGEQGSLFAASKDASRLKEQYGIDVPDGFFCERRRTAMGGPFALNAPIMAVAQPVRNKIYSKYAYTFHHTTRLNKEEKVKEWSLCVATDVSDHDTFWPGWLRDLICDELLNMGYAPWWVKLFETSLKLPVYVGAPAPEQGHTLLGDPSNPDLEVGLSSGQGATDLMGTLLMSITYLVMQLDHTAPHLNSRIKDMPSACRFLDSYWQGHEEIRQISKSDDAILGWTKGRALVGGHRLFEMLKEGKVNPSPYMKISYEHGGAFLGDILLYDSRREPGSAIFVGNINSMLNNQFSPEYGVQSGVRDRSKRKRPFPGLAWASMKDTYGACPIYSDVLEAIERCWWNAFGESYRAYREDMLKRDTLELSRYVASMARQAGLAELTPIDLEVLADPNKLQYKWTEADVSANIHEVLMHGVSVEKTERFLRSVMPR
Test: tryptophan fluorescence quenching titration
Type: binding

| Compound | Kd |
| --- | --- |
| Nc1nc2c(ncn2[C@@H]2O[C@H](COP(=O)(O)CP(=O)(O)OP(=O)(O)O)[C@@H](O)[C@H]2O)c(=O)[nH]1 [GMPCPP] | 271 ± 31 µM |
| Nc1nc2c(ncn2[C@@H]2O[C@H](COP(=O)(O)OP(=O)(O)NP(=O)(O)O)[C@@H](O)[C@H]2O)c(=O)[nH]1 [GMPPNP] | 317 ± 31 µM |
